Assay results as given in ChEMBL document CHEMBL5390229, “Inhibiting HCMV pUL89-C Endonuclease with Metal-Binding Compounds” (J Med Chem, 2023).

What was measured:
[1] = tested on: Cytomegalovirus; assay: Antiviral activity against Human Cytomegalovirus; settings: Human betaherpesvirus 5
[2] = tested on: Cytomegalovirus; assay: Antiviral activity against Human Cytomegalovirus assessed as inhibition of viral growth at 10 uM relative to control; assay type: functional; settings: Human betaherpesvirus 5
[3] = molecular target: T1, Tripartite terminase subunit 3 (Human betaherpesvirus 5, UniProt P16732); assay: Inhibition of Human Cytomegalovirus C-terminal UL89 […] using (5-tcggtgcgggcctcttcgctattacgccagctggcgaaagggggatgtgctgcaaggcga as a substrate preincubated for 15 mins followed by substrate addition and measured after 30 mins by plate reader endonuclease assay
T1 sequence (P16732 whole entry): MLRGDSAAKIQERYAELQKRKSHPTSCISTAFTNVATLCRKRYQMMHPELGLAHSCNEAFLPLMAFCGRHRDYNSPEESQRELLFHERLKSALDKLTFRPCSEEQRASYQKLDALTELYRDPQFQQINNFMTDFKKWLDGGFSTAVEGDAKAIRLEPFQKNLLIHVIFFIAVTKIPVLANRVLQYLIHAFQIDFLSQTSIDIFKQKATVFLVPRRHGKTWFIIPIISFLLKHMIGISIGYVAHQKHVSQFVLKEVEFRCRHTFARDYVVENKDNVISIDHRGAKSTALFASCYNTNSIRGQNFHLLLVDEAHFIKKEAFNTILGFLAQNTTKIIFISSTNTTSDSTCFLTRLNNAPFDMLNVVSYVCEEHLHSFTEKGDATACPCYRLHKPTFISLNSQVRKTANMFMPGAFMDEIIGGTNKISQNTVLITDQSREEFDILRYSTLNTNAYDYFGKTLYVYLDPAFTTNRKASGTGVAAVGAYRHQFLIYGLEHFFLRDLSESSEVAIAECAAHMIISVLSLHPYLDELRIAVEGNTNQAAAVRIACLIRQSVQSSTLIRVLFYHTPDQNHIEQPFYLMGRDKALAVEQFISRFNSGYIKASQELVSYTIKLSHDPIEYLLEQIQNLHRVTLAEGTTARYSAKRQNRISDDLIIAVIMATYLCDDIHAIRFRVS

[4] = Permeability of the compound at pH 7.4 by PAMPA method; assay type: ADME; settings: for Papp: read-out: permeability
[5] = molecular target: T2, Tripartite terminase subunit 3 (Human betaherpesvirus 5) (UniProt P16732); assay: Inhibition of Human Cytomegalovirus C-terminal UL89 […] using (5-tcggtgcgggcctcttcgctattacgccagctggcgaaagggggatgtgctgcaaggcga as a substrate preincubated for 15 mins followed by substrate addition at 20 uM and measured after 30 mins by plate reader endonuclease assay relative to control; settings: time 45.0 min
T2 sequence (whole entry): T1 sequence (P16732 whole entry)

[6] = tested on: HFF; assay: Cytotoxicity against human HFF cells assessed as reduction in cell viability; assay type: functional
[7] = molecular target: T3, Human immunodeficiency virus type 1 reverse transcriptase (Human immunodeficiency virus 1, UniProt Q72547); assay: Inhibition of HIV-1 reverse transcriptase
[8] = molecular target: Integrase (Human immunodeficiency virus 1, UniProt Q76353, Q148K); assay: Inhibition of HIV-1 integrase Q148K mutant
Sequence of Integrase (Q76353 entry or part of it Q148K): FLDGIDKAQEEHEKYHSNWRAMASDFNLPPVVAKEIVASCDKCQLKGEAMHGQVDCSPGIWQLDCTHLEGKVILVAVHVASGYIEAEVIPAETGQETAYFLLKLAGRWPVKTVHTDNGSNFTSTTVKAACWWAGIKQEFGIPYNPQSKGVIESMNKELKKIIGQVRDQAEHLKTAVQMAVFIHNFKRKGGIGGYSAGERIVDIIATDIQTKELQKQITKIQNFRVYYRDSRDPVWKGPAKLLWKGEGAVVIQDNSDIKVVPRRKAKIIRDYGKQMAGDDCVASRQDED

[9] = tested on: Human immunodeficiency virus 1; assay: Antiviral activity against HIV-1 harboring integrase L74M mutant; assay type: functional, organism-based
[10] = molecular target: Human immunodeficiency virus type 1 integrase (Human immunodeficiency virus 1, UniProt Q7ZJM1, R263K); assay: Inhibition of HIV-1 integrase DTG-resistant R263K mutant
Sequence of Human immunodeficiency virus type 1 integrase (Human immunodeficiency virus 1, UniProt Q7ZJM1, R263K) (Q7ZJM1 entry or part of it R263K): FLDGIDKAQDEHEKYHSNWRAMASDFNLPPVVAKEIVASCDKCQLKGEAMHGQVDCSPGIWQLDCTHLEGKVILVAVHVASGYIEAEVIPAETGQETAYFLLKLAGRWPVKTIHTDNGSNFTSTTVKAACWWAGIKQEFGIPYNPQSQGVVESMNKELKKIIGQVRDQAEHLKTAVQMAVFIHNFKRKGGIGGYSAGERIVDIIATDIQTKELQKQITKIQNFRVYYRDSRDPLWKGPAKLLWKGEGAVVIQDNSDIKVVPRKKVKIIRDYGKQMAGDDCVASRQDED

[11] = Cytotoxicity against human HFF-1 cells assessed as induction of cell death incubated for 24 hrs by MTT assay; assay type: toxicity, cell-based
[12] = molecular target: Hepatitis C virus NS5B RNA-dependent RNA polymerase (Hepatitis C virus, UniProt Q8JXU8); assay: Inhibition of Hepatitis C virus NS5B polymerase; set-up: species or system Hepacivirus hominis
Sequence of Hepatitis C virus NS5B RNA-dependent RNA polymerase (Q8JXU8 whole entry): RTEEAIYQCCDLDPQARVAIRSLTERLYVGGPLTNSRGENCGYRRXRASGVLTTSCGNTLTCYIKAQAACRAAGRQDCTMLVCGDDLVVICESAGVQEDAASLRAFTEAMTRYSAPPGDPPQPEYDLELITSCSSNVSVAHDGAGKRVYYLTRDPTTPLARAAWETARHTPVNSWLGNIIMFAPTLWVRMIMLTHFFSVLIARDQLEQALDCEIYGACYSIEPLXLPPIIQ

[13] = Selectivity index, ratio of CC50 for human HFF cells to EC50 for Human cytomegalovirus; assay type: toxicity; settings: read-out: Ratio CC50/EC50
[14] = molecular target: T3, Human immunodeficiency virus type 1 reverse transcriptase; assay: Inhibition of HIV-1 reverse transcriptase associated RNA-dependent DNA polymerase
[15] = molecular target: T3, Human immunodeficiency virus type 1 reverse transcriptase; assay: Inhibition of HIV-1 RNase H polymerase activity
[16] = tested on: Human immunodeficiency virus 1; assay: Antiviral activity against HIV-1 assessed as viral growth inhibition; assay type: functional, organism-based
[17] = Cytotoxicity against human HFF cells assessed as reduction in cell viability incubated for 72 hrs by MTT assay; assay type: toxicity, cell-based
[18] = molecular target: T1, Tripartite terminase subunit 3; assay: Inhibition of human Cytomegalovirus C-terminal UL89
[19] = molecular target: Human immunodeficiency virus type 1 integrase (Human immunodeficiency virus 1, UniProt Q7ZJM1, G140S/Q148K)
Sequence of Human immunodeficiency virus type 1 integrase (Human immunodeficiency virus 1, UniProt Q7ZJM1, G140S/Q148K) (Q7ZJM1 entry or part of it G140S/Q148K): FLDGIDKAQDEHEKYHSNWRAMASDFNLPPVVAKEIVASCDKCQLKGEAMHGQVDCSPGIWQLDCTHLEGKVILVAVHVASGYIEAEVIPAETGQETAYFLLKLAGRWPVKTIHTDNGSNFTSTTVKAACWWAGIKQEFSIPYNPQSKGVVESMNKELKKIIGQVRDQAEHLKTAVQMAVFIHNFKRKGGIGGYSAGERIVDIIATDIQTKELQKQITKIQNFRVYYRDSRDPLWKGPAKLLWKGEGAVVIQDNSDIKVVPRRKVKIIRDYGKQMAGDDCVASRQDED

Compound | EC50 [1] [nM] | IC50 [3] [nM] | inhibition at 10 µM [2] [%] | also measured
O=c1[nH]c2sccc2c(=O)n1O | – | 400 | -0.95 | Papp [4]: 0.1 ×10⁻⁶ cm/s
O=c1[nH]c2sc(-c3ccccc3)cc2c(=O)n1O | – | 1600 | 2.7 | Papp [4]: 0.5 ×10⁻⁶ cm/s
O=C(NCc1ccc(F)cc1F)c1cn(Cc2ccc(F)cc2)cc(O)c1=O | 900 | – | – | inhibition [5]: 14%
O=c1[nH]c2sc(-c3ccc(Cl)cc3)cc2c(=O)n1O | 7600 | 300 | 33 | Papp [4]: 0.5 ×10⁻⁶ cm/s
CC(C)c1cn(COCc2ccccc2)c(=O)[nH]c1=O | – | – | – | CC50 [6]: > 20000 nM; IC50 [7]: 40 nM; IC50 [8]: > 333000 nM; EC50 [9]: 13 nM
O=c1[nH]c2sc3c(c2c(=O)n1O)CCNC3 | – | 680 | 26 | Papp [4]: 0.1 ×10⁻⁶ cm/s
O=C(NCc1ccc(F)cc1F)c1cn(Cc2ccc(F)cc2)ccc1=O | 6600 | – | – | inhibition [5]: 5%
CCOC(=O)c1cn(Cc2ccc(F)cc2)cc(O)c1=O | – | – | 40 | –
O=c1[nH]c2sc3c(c2c(=O)n1O)CCCC3 | – | 790 | -3 | permeability [4]: 1.1 10^-6 cm/s
O=C(c1cc(Cc2ccccc2)cc(CN2CCCS2(=O)=O)c1)c1ncc2cccnc2c1O | – | – | – | IC50 [10]: 10 nM
O=c1[nH]c2ccsc2c(=O)n1O | – | 100 | -11 | Papp [4]: 0.1 ×10⁻⁶ cm/s
O=c1[nH]c2cc(-c3ccccc3)sc2c(=O)n1O | 13000 | 600 | 59 | permeability [4]: 1.4 10^-6 cm/s; CC50 at 24 h [11]: > 50000 nM
O=C(O)C(=O)CC(=O)c1cccc(Cc2ccccc2)c1 | – | – | – | IC50 [10]: 10 nM
COc1cn(Cc2ccc(F)cc2)cc(C(=O)NCc2ccc(F)cc2F)c1=O | > 50000 | – | – | inhibition [5]: 6%
O=C(O)c1nc(-c2cccs2)nc(O)c1O | – | – | – | IC50 [12]: 2600 nM
O=c1[nH]c2sc3c(c2c(=O)n1O)CCC3 | – | 480 | 19 | Papp [4]: 0.4 ×10⁻⁶ cm/s
O=C(NCCc1ccc(F)cc1F)c1cn(Cc2ccc(F)cc2)cc(O)c1=O | 400 | – | – | inhibition [5]: 10%; CC50 [6]: > 50000 nM; selectivity ratio [13]: > 40
CC(C)c1cn(COCc2ccccc2)c(=O)n(O)c1=O | – | – | – | IC50 [14]: 5400 nM; IC50 [15]: 2500 nM; EC50 [16]: 8 nM; CC50 at 72 h [17]: > 20000 nM
O=c1[nH]c2sc3c(c2c(=O)n1O)CCN(Cc1ccccc1)C3 | 15000 | 1100 | 59 | Papp [4]: 0.2 ×10⁻⁶ cm/s; CC50 at 24 h [11]: > 50000 nM
O=C(NCc1ccc(F)cc1)c1ncc2cccnc2c1O | – | – | – | IC50 [10]: 33 nM
CCc1ccccc1Sc1cc(=O)n(O)c(=O)n1C | – | – | – | CC50 at 72 h [17]: 20000 nM
O=C1c2ccccc2C(c2ccccc2F)C(=O)N1O (centres undefined) | 6200 | 1400 | 68 | Papp [4]: 3 ×10⁻⁶ cm/s
CN(Cc1ccc(F)cc1)C(=O)CC(=O)C(=O)O | – | – | – | IC50 [18]: 50000 nM
O=c1c2cc(Cc3ccccc3)ccc2oc2ccc(O)c(O)c12 | – | – | – | IC50 [10]: 600 nM
O=C(O)C(=O)CC(=O)c1ccc(N2CCCCC2)cc1 | – | – | – | IC50 [18]: 4500 nM
CCOC(=O)c1cc(=O)c(O)c(C(=O)O)o1 | – | – | – | IC50 [12]: 2250 nM
O=c1[nH]c2cc(-c3ccccc3)ccc2c(=O)n1O | 13000 | 6400 | 91 | Papp [4]: 2 ×10⁻⁶ cm/s
O=c1[nH]c2c3c(sc2c(=O)n1O)CCCC3 | – | 940 | -4.5 | Papp [4]: 1 ×10⁻⁶ cm/s
O=C(NCc1ccccc1)c1nc(-c2cccs2)nc(O)c1O | – | – | – | IC50 [19]: 2600 nM
O=c1[nH]c2c3c(sc2c(=O)n1O)CCC3 | 220 | 220 | -32 | Papp [4]: 0.3 ×10⁻⁶ cm/s

Further lines, with some results ahead:

EC50 [1] [nM] | IC50 [3] [nM] | Compound | inhibition at 10 µM [2] [%] | also measured
10000 | – | O=C(O)c1cn(Cc2ccc(F)cc2)cc(O)c1=O | 39 | –
– | > 20000 | COc1ccc(-c2ccc(Nc3cc(=O)n(O)c(=O)n3C)cc2)cc1 | – | –
> 20000 | 1100 | O=c1cc(Nc2ccc(-c3ccc(O)cc3)cc2)[nH]c(=O)n1O | – | –
– | > 25000 | O=C(O)c1cn(Cc2ccccc2)cc(O)c1=O | 38 | –
– | > 25000 | O=C(O)c1cn(-c2ccccc2)cc(O)c1=O | 8 | –
> 20000 | 1200 | COc1cccc(-c2ccc(Nc3cc(=O)n(O)c(=O)[nH]3)cc2)c1 | – | –
– | > 50000 | NC(=O)c1cn(Cc2ccc(F)cc2)cc(O)c1=O | 50 | –
> 20000 | > 20000 | Cn1c(Nc2ccc(-c3ccccc3)cc2)cc(=O)n(O)c1=O | – | –
– | > 25000 | CCn1cc(O)c(=O)c(C(=O)O)c1 | 14 | –
> 20000 | 2900 | O=c1cc(Nc2ccc(-c3cccc(O)c3)cc2)[nH]c(=O)n1O | – | –
– | 1800 | Cc1ccc(CNC(=O)c2nc(Cl)c3cccnc3c2O)cc1 | – | –
15000 | 14000 | COc1cccc(OC)c1-c1cccc(Nc2cc(=O)n(O)c(=O)[nH]2)c1 | – | –
> 20000 | 9300 | O=c1cc(Nc2ccc(-c3ccc(Cl)cc3)cc2)[nH]c(=O)n1O | – | –
1200 | 2200 | Cc1ccc(-c2ccc(Nc3cc(=O)n(O)c(=O)n3C)cc2)cc1 | – | –
> 20000 | > 20000 | O=c1cc(Nc2cccc(-c3ccc(Cl)cc3)c2)[nH]c(=O)n1O | – | –
4000 | 6000 | O=C(O)c1cn(Cc2ccc(F)c(Cl)c2)cc(O)c1=O | 53 | CC50 [6]: > 200000 nM; selectivity ratio [13]: > 116
6200 | 740 | Cn1c(Nc2ccc(-c3cccc(C#N)c3)cc2)cc(=O)n(O)c1=O | – | –
– | > 20000 | Cn1c(Nc2ccc(-c3ccc(C(F)(F)F)cc3)cc2)cc(=O)n(O)c1=O | – | –
> 20000 | 14000 | COc1ccc(-c2cccc(Nc3cc(=O)n(O)c(=O)[nH]3)c2)cc1 | – | –
– | 14000 | O=C(O)c1c[nH]cc(O)c1=O | 13 | –
– | > 25000 | O=C(O)c1cn(C2CC2)cc(O)c1=O | 2 | –
– | 2800 | Cc1ccc(CNC(=O)c2nc(-c3ccccc3)c3cccnc3c2O)cc1 | – | –
